PMC5895059, “Scaffold hopping from (5-hydroxymethyl) isophthalates to multisubstituted pyrimidines diminishes binding affinity to the C1 domain of protein kinase C” (PLoS ONE, 2018)
“And” between values parts separate entries of the source, which are not always exact repeats. Equal values may be shown once.

Biological target: PKCα (Homo sapiens, UniProt P17252)
Test: [3H]PDBu displacement, 96-well plate filtration binding assay
Conditions: for Displacement assay raw data (CCPM): single replicate wells; for Residual [^3H]PDBu binding to PKCα (% of control): 20 μM compound concentration, mean + SEM, n = 2–8

| SMILES | Residual [^3H]PDBu binding to PKCα (% of control) | Displacement of [^3H]PDBu from PKCα (in words) (concentration range of 0.2–30 μM) | Displacement assay raw data (CCPM) (0,2 µM test substance) | Displacement assay raw data (CCPM) (1 µM test substance) | Displacement assay raw data (CCPM) (4 µM test substance) | Displacement assay raw data (CCPM) (10 µM test substance) | Displacement assay raw data (CCPM) (20 µM test substance) | Displacement assay raw data (CCPM) (30 µM test substance) | Displacement assay raw data (CCPM) (1 nM test substance, listed as PMA) | Displacement assay raw data (CCPM) (10 nM test substance, listed as PMA) | Displacement assay raw data (CCPM) (100 nM test substance, listed as PMA) |
| --- | --- | --- | --- | --- | --- | --- | --- | --- | --- | --- | --- |
| CCOC(=O)c1cc(C(=O)OCC)nc(CO)n1 [Compound 1h, Diethyl 2-(hydroxymethyl)pyrimidine-4,6-dicarboxylate] | 116.3 ± 5.9 % of control | – | 6323 CCPM and 10230 CCPM and 10470 CCPM and 11100 CCPM and 5792 CCPM and 6513 CCPM | 5802 CCPM and 9840 CCPM and 9837 CCPM and 10294 CCPM and 5441 CCPM and 6766 CCPM | 5407 CCPM and 9299 CCPM and 9482 CCPM and 9928 CCPM and 5323 CCPM and 5809 CCPM | 6198 CCPM and 9686 CCPM and 9902 CCPM and 9890 CCPM and 6355 CCPM and 6092 CCPM | 6120 CCPM and 9294 CCPM and 10766 CCPM and 9965 CCPM and 5572 CCPM and 5876 CCPM | 5421 CCPM and 9318 CCPM and 10014 CCPM and 8246 CCPM and 4984 CCPM and 6346 CCPM | – | – | – |
| CCCCC(CC)OC(=O)c1cc(C(=O)OC(CC)CCCC)nc(CO)n1 (centres unmarked) [Compound 1e, Di(heptan-3-yl) 2-(hydroxymethyl)pyrimidine-4,6-dicarboxylate] | 86.7 ± 7.7 % of control | – | 5837 CCPM and 9796 CCPM and 9740 CCPM and 9577 CCPM and 6148 CCPM and 6500 CCPM | 5874 CCPM and 9629 CCPM and 9242 CCPM and 9347 CCPM and 6081 CCPM and 6166 CCPM | 6376 CCPM and 9023 CCPM and 9333 CCPM and 9667 CCPM and 6505 CCPM and 6158 CCPM | 5476 CCPM and 8845 CCPM and 9519 CCPM and 8799 CCPM and 5785 CCPM and 5946 CCPM | 5873 CCPM and 9742 CCPM and 7884 CCPM and 7727 CCPM and 6291 CCPM and 6049 CCPM | 5476 CCPM and 8529 CCPM and 8458 CCPM and 9304 CCPM and 5635 CCPM and 5882 CCPM | – | – | – |
| CCCCCCCCCCCOC(=O)c1cc(C(=O)OCCCCCCCCCCC)nc(CO)n1 [Compound 1c, Diundecyl 2-(hydroxymethyl)pyrimidine-4,6-dicarboxylate] | 103.7 ± 5.3 % of control | – | 8135 CCPM and 9009 CCPM and 9090 CCPM | 7374 CCPM and 8410 CCPM and 8950 CCPM | 8779 CCPM and 7927 CCPM and 8172 CCPM | 7968 CCPM and 8364 CCPM and 8092 CCPM | 7670 CCPM and 9322 CCPM and 8225 CCPM | 7089 CCPM and 8399 CCPM and 9539 CCPM | – | – | – |
| CCCCCCCCCCCCCC(=O)O[C@@H]1[C@@H](C)[C@@]2(O)[C@@H](C=C(CO)C[C@]3(O)C(=O)C(C)=C[C@@H]23)[C@@H]2C(C)(C)[C@]12OC(C)=O [Phorbol 12-myristate-13-acetate, reference compound] | – | – | – | – | – | – | – | – | 1177 CCPM and 1302 CCPM and 1254 CCPM and 242 CCPM and 282 CCPM and 239 CCPM and 330 CCPM and 372 CCPM and 364 CCPM | 406 CCPM and 456 CCPM and 410 CCPM and 123 CCPM and 132 CCPM and 186 CCPM and 230 CCPM and 206 CCPM | 341 CCPM and 382 CCPM and 361 CCPM and 56 CCPM and 49 CCPM and 43 CCPM and 48 CCPM and 57 CCPM and 40 CCPM |
| CCCCCCCOC(=O)c1cc(C(=O)OCCCCCCC)nc(CO)n1 [Compound 1a, Diheptyl 2-(hydroxymethyl)pyrimidine-4,6-dicarboxylate] | 94.1 ± 2.4 % of control | – | 5564 CCPM and 8472 CCPM and 8055 CCPM and 9131 CCPM and 5172 CCPM and 4908 CCPM | 5111 CCPM and 8836 CCPM and 8480 CCPM and 8743 CCPM and 5670 CCPM and 5038 CCPM | 5090 CCPM and 8165 CCPM and 8077 CCPM and 7980 CCPM and 5413 CCPM and 5275 CCPM | 5789 CCPM and 8577 CCPM and 7653 CCPM and 8759 CCPM and 5036 CCPM and 5595 CCPM | 4889 CCPM and 7960 CCPM and 7787 CCPM and 7605 CCPM and 5228 CCPM and 4729 CCPM | 4835 CCPM and 7857 CCPM and 7587 CCPM and 5013 CCPM and 5317 CCPM | – | – | – |

The next lines start with results.

| Residual [^3H]PDBu binding to PKCα (% of control) | Displacement of [^3H]PDBu from PKCα (in words) (concentration range of 0.2–30 μM) | SMILES | Displacement assay raw data (CCPM) (0,2 µM test substance) | Displacement assay raw data (CCPM) (1 µM test substance) | Displacement assay raw data (CCPM) (4 µM test substance) | Displacement assay raw data (CCPM) (10 µM test substance) | Displacement assay raw data (CCPM) (20 µM test substance) | Displacement assay raw data (CCPM) (30 µM test substance) | Displacement assay raw data (CCPM) (1 nM test substance, listed as PMA) | Displacement assay raw data (CCPM) (10 nM test substance, listed as PMA) | Displacement assay raw data (CCPM) (100 nM test substance, listed as PMA) |
| --- | --- | --- | --- | --- | --- | --- | --- | --- | --- | --- | --- |
| 90.5 ± 6.0 % of control | – | Cc1c(OCc2cccc(C(F)(F)F)c2)nc(CO)nc1C(=O)OCc1cccc(C(F)(F)F)c1 [Compound 2f, 3-(trifluoromethyl)benzyl 2-(hydroxymethyl)-5-methyl-6-[[3-(trifluoromethyl)benzyl]oxy]pyrimidine-4-carboxylate] | 5892 CCPM and 5535 CCPM and 6214 CCPM and 6493 CCPM and 5681 CCPM and 5606 CCPM | 5789 CCPM and 5065 CCPM and 5775 CCPM and 6129 CCPM and 5689 CCPM | 5908 CCPM and 5351 CCPM and 5505 CCPM and 4754 CCPM and 5387 CCPM and 5468 CCPM | 5951 CCPM and 5634 CCPM and 5541 CCPM and 5247 CCPM and 5397 CCPM and 4899 CCPM | 5509 CCPM and 4316 CCPM and 5047 CCPM and 4822 CCPM and 4931 CCPM and 4834 CCPM | 5249 CCPM and 4747 CCPM and 5046 CCPM and 4792 CCPM and 4631 CCPM and 4673 CCPM | – | – | – |
| 87.2 ± 1.7 % of control | – | CCCCCCCOc1nc(CO)nc(C(=O)OC(CC)CCCC)c1C (centres unmarked) [Compound 2i, Heptan-3-yl 6-(heptyloxy)-2-(hydroxymethyl)-5-methylpyrimidine-4-carboxylate] | 4873 CCPM and 4870 CCPM and 5222 CCPM and 7916 CCPM and 8966 CCPM and 8933 CCPM | 5191 CCPM and 5217 CCPM and 5062 CCPM and 8605 CCPM and 8987 CCPM and 9227 CCPM | 5070 CCPM and 5217 CCPM and 5699 CCPM and 8553 CCPM and 8476 CCPM and 8686 CCPM | 4806 CCPM and 5282 CCPM and 4681 CCPM and 7955 CCPM and 8861 CCPM and 7525 CCPM | 4663 CCPM and 4781 CCPM and 4927 CCPM and 7593 CCPM and 7766 CCPM and 7574 CCPM | 4959 CCPM and 5003 CCPM and 5038 CCPM and 7682 CCPM and 7603 CCPM and 7191 CCPM | – | – | – |
| 89.7 ± 7.1 % of control | – | CCCC(CCC)COC(=O)c1nc(CO)nc(OCC(CCC)CCC)c1C [Compound 2d, 2-propylpentyl 2-(hydroxymethyl)-5-methyl-6-[(2-propylpentyl)oxy]pyrimidine-4-carboxylate] | 9740 CCPM and 9459 CCPM and 9651 CCPM and 5569 CCPM and 5686 CCPM and 5559 CCPM | 7644 CCPM and 9362 CCPM and 9109 CCPM and 5694 CCPM and 5798 CCPM and 6238 CCPM | 7518 CCPM and 9016 CCPM and 8738 CCPM and 4914 CCPM and 5158 CCPM and 5369 CCPM | 7586 CCPM and 7877 CCPM and 7985 CCPM and 4832 CCPM and 5595 CCPM and 4913 CCPM | 7408 CCPM and 8501 CCPM and 8368 CCPM and 4542 CCPM and 5847 CCPM and 5492 CCPM | 8520 CCPM and 7381 CCPM and 8758 CCPM and 5782 CCPM and 4556 CCPM and 4977 CCPM | – | – | – |
| 86.8 ± 7.8 % of control | – | CCCCC(CC)OC(=O)c1nc(CO)nc(OCc2cccc(C(F)(F)F)c2)c1C (centres unmarked) [Compound 2h, Heptan-3-yl 2-(hydroxymethyl)-5-methyl-6-[[3-(trifluoromethyl)benzyl]oxy]pyrimidine-4-carboxylate] | 5892 CCPM and 5535 CCPM and 6214 CCPM and 5732 CCPM and 5572 CCPM and 5002 CCPM | 5789 CCPM and 5065 CCPM and 5775 CCPM and 5836 CCPM and 5313 CCPM and 4792 CCPM | 5908 CCPM and 5351 CCPM and 5505 CCPM and 5457 CCPM and 5305 CCPM and 4736 CCPM | 5951 CCPM and 5634 CCPM and 5541 CCPM and 4751 CCPM and 4877 CCPM and 4485 CCPM | 5509 CCPM and 4316 CCPM and 5047 CCPM and 4061 CCPM and 4136 CCPM and 4187 CCPM | 5249 CCPM and 4747 CCPM and 5046 CCPM and 3715 CCPM and 4141 CCPM and 3683 CCPM | – | – | – |
| 88.5 ± 5.7 % of control | – | CCCCCCCOC(=O)c1nc(CO)nc(OCCCCCCC)c1C [Compound 2b, Heptyl 6-(heptyloxy)-2-(hydroxymethyl)-5-methylpyrimidine-4-carboxylate] | 13052 CCPM and 11682 CCPM and 11827 CCPM and 17977 CCPM and 18315 CCPM and 17029 CCPM | 11258 CCPM and 11582 CCPM and 12305 CCPM and 17512 CCPM and 18998 CCPM and 18500 CCPM | 10048 CCPM and 11019 CCPM and 11674 CCPM and 17585 CCPM and 17180 CCPM and 19863 CCPM | 10753 CCPM and 10221 CCPM and 10149 CCPM and 14691 CCPM and 16431 CCPM and 16220 CCPM | 9620 CCPM and 9492 CCPM and 9656 CCPM and 14771 CCPM and 14660 CCPM and 15872 CCPM | 9760 CCPM and 10346 CCPM and 10712 CCPM and 16581 CCPM and 14486 CCPM and 14880 CCPM | – | – | – |
| 85.3 ± 7.4 % of control | strongest concentration dependence | CCCCCCOC(=O)c1nc(CO)nc(OCCCCCC)c1C [Compound 2a, Hexyl 6-(hexyloxy)-2-(hydroxymethyl)-5-methylpyrimidine-4-carboxylate] | 7949 CCPM and 9699 CCPM and 8544 CCPM and 12898 CCPM and 11646 CCPM and 12786 CCPM | 7626 CCPM and 8685 CCPM and 9639 CCPM and 11993 CCPM and 12245 CCPM and 12903 CCPM | 7496 CCPM and 8524 CCPM and 9257 CCPM and 11421 CCPM and 11194 CCPM and 11877 CCPM | 7467 CCPM and 7915 CCPM and 7828 CCPM and 11547 CCPM and 11263 CCPM and 11635 CCPM | 6283 CCPM and 8361 CCPM and 8257 CCPM and 10077 CCPM and 11544 CCPM and 10260 CCPM | 6598 CCPM and 7105 CCPM and 7428 CCPM and 10040 CCPM and 10575 CCPM and 9972 CCPM | – | – | – |
